The text below walks through data of patent US20230017712A1, “SUSTAINED RELEASE DRUG DELIVERY DEVICE” (OAK CREST INSTITUTE OF SCIENCE, priority 2019, published 2023).

The subject of data set [1] is HIV. The following applies: cited from earlier work.
How the values of data set [2] were obtained:
The concentration of TAF in the release media was measured by UV-vis absorption spectroscopy (λmax 262 nm).

For data set [3] the following is noted: kernel 70% TAF / 30% triethyl citrate. The protocol:
For both implant types, kernels consisted of 70% TAF and 30% triethyl citrate (w/w). Skins used custom tube extrusions of polyurethane [Pellethane® 2363-55DE (Lubrizol, Inc.); 25 mm length, 2.2 mm I.D., 0.13 mm wall thickness] and silicone [MED-4765 (Nusil, Inc.); 25 mm length, 2.1 mm I.D., 0.13 mm wall thickness]. The implant ends were sealed with MEDS-4213 (Nusil, Inc.) silicone adhesive. In vitro release studies were carried out in 100 mL of release media (0.5% solutol HS 15 in 1×PBS) at 37° C. in an orbital shaking incubator at 125 RPM. Media was changed as required to keep TAF concentration at least 50-fold below saturation to maintain sink conditions.

For data set [4] the following is noted: paste 50% TAF / 50% PEG 400. The protocol:
Implants were fabricated using an ePTFE tubing skin (40 mm length, 2.0 mm I.D., 0.18 mm wall thickness) and a paste kernel composed of 50% TAF and 50% PEG 400 (w/w); the tube ends were sealed. In vitro release studies were carried out in 100 mL of release media (0.1% solutol HS 15 in 1×PBS) at 37° C. in an orbital shaking incubator at 125 RPM. Media was changed as required to keep TAF concentration at least 50-fold below saturation to maintain sink conditions.

For data set [5] the following is noted: monoolein (MYVEROL 18-92K) paste, FIG. 30B. The protocol:
In vitro release studies were carried out in 100 mL of release media (0.1% solutol HS 15 in 1×PBS) at 37° C. in an orbital shaking incubator at 125 RPM. Media was changed as required to keep TAF concentration at least 50-fold below saturation to maintain sink conditions.

For data set [6] the following is noted: TAF powder, no excipients, PBS, 37° C. The protocol: Segments (25 mm long) of the ePTFE tubes listed in TABLE 1 were cut, and approximately 3 mm of each end of the tube were prepared for sealing using FluoroEtch primer (Action Technologies, Pittston, Pa.) according to manufactures instructions. The tubes were then filled with tenofovir alafenamide (TAF) powder. No other excipients were used. The mass of TAF per implant varied between 20 and 70 mg depending on the experiment. The filled implants were sealed at both ends by placing a drop of Permabond 105 cyanoacrylate adhesive (Permabond Engineering Adhesives, Pottstown, Pa., USA) inside each end of the tube and crimping the end closed for 30 sec to allow the adhesive to cure and form a tight seal. Implants were kept at room temperature (ca. 23° C.) for 24 hours to allow the adhesive bond to reach full strength. The TAF in vitro release kinetics from the loaded implants was investigated by immersing the device in a solution consisting of phosphate buffered saline (PBS, 1×, 100 mL) containing sodium azide (0.01% w/v) at 37° C. with orbital shaking at 125 RPM for 30 days. The concentration of TAF in the release media was measured by UV-vis absorption spectroscopy (λmax 262 nm).

This is another data set of the same source.
Data set [7] has as its system HIV. Conditions: target 50 fmol TFV-DP per million PBMCs; cited from earlier work.
The conditions of data set [8]: 600 mg every 8 weeks, intramuscular; cited from earlier work.
Data set [9] relates to HIV. Conditions: from non-human primate efficacy studies; cited from earlier work.

Structures are written as SMILES. Where two headings read alike, the source gives them in different places.

For `CC(C)OC(=O)[C@H](C)N[P@](=O)(CO[C@H](C)Cn1cnc2c(N)ncnc21)Oc1ccccc1` [TAF, Tenofovir alafenamide], the “release rate that could be protective” value in data set [1] was “ca. 0.3 mg d^−1”. In data set [2] (PDMS sponges coated with DL-PLA, L-PLA or PCL), the “release behaviour of coated sponges” value was “controlled and tuned over 15 d”. Also, in data set [2] (no polymer coating applied), the “time for drug release from TAF-impregnated sponges” value is “under 1 d”. Also, the “release rate, linear fit days 20-160” value in [3] (polyurethane skin (Pellethane 2363-55DE)) was determined as 0.079 mg/day; in [3] (silicone skin (MED-4765)), 0.035 mg/day. Besides, the figures for the TAF release rate in data set [4] (ePTFE density 0.47 g cm^−3) and in [4] (ePTFE density 0.84 g cm^−3) were 0.51 mg/day and 0.065 mg/day, respectively. In [5], the “effect of monoolein paste on release kinetics through ePTFE tubes relative to other hydrophobic oils” value was “increasing the rate of drug release”. For the same molecule, the “daily release rate (slope of linear regression, best fit value±SE)” value in data set [6] (ePTFE tube density 0.34 g cm^−3) was 1.22 ± 0.023 mg/day; in [6] (ePTFE tube density 0.47 g cm^−3), 0.40 ± 0.0087 mg/day; in data set [6] (ePTFE tube density 0.84 g cm^−3), 0.58 ± 0.0089 mg/day; in data set [6] (ePTFE tube density 1.13 g cm^−3), 0.12 ± 0.0037 mg/day. Also, the “TAF delivered linearly over 80 days” value (blended with PEG 400) is “ca. 5 mg”. Further, the “TAF delivered from the implants over the first month” value (blended with TEC) was 60 mg. Also, where the note is “blended with TEC”, the “TAF delivered in less than the first day” value was 5 mg. In addition, for the setting “paste TAF 77% w/w with PEG 400 23% w/w, ePTFE 0.84 g cm^−3, 40 mm implant”, the “slope (release rate), simple linear regression” value came out at 54.4 µg/day. Moreover, the “linear subcutaneous release rate leading to protective TFV-DP PBMC concentrations” value in data set [7] was 0.5 mg/day.

Take `C[C@H]1CO[C@@H]2Cn3cc(C(=O)NCc4ccc(F)cc4F)c(=O)c(O)c3C(=O)N12` [CAB, Cabotegravir]: in [8], the “participants with trough concentrations above 1× PA-IC90” value was ≥ 95% and the “participants with trough concentrations above 4× PA-IC90” value is on record as ≥ 80%. For the same molecule, the “steady state plasma concentration target, four times the protein adjusted IC90 (PA-IC90)” value in data set [9] is 0.66 µg/mL.
